Source: ChEMBL document CHEMBL1201862, “PubChem BioAssay data set” (2004)
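Interpolation was linear, between the two tested concentrations surrounding the appropriate level; five concentrations were tested over 48 hours in 96-well plates. GI50: concentration for 50% inhibition of growth.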 Calls of active or inactive are those of the source. Cut-off read from the data, not from the text of the source: active = GI50 up to about 1.1 µM and inactive = higher.

What was measured:
Experiment in all cases: NCI tumour cell line growth inhibition, 48 h
[1] = tested on: HL-60
[2] = tested on: SW-620
[3] = tested on: TK-10
[4] = tested on: K562
[5] = tested on: SF-268
[6] = tested on: M14
[7] = tested on: EKVX
[8] = tested on: SF-295
[9] = tested on: NCI-H522
[10] = tested on: HOP-92
[11] = tested on: T47D
[12] = tested on: RPMI-8226
[13] = tested on: MCF7
[14] = tested on: DU-145
[15] = tested on: ACHN
[16] = tested on: IGROV-1
[17] = tested on: HT-29
[18] = tested on: SK-OV-3
[19] = tested on: SNB-75

CCCNC(=S)N/N=C(\C)c1ccc(S(=O)(=O)N(C)c2ccccc2)cc1
GI50 [1]: > 100 µM (inactive) | GI50 [2]: > 100 µM (inactive) | GI50 [3]: 25.5 µM (inactive) | GI50 [4]: > 100 µM (inactive) | GI50 [5]: 7.06 µM (inactive) | GI50 [6]: > 29.1 µM (inactive) | GI50 [7]: 37.8 µM (inactive) | GI50 [8]: 18.3 µM (inactive) | GI50 [9]: > 100 µM (inactive) | GI50 [10]: 20.4 µM (inactive) | GI50 [11]: > 67.3 µM (inactive) | GI50 [12]: > 31.6 µM (inactive) | GI50 [13]: 57 µM (inactive) | GI50 [14]: > 78.5 µM (inactive) | GI50 [15]: 24.7 µM (inactive) | GI50 [16]: 22.1 µM (inactive) | GI50 [17]: > 100 µM (inactive) | GI50 [18]: 45 µM (inactive) | GI50 [19]: 17.9 µM (inactive)

Cc1cc(S(=O)(=O)Nc2nc3ccccc3n2-c2ccccc2)c(S)cc1Cl
GI50 [1]: > 100 µM (inactive) | GI50 [2]: > 100 µM (inactive) | GI50 [4]: > 100 µM (inactive) | GI50 [5]: > 100 µM (inactive) | GI50 [6]: > 100 µM (inactive) | GI50 [7]: > 100 µM (inactive) | GI50 [8]: 44.4 µM (inactive) | GI50 [9]: > 100 µM (inactive) | GI50 [10]: > 100 µM (inactive) | GI50 [11]: 9.12 µM (inactive) | GI50 [12]: > 100 µM (inactive) | GI50 [13]: > 100 µM (inactive) | GI50 [14]: > 100 µM (inactive) | GI50 [15]: > 100 µM (inactive) | GI50 [16]: > 100 µM (inactive) | GI50 [19]: > 100 µM (inactive)

CC(C)(C)[Si](C)(C)OCC1OC(n2ccc(=O)[nH]c2=O)C(O[Si](C)(C)C(C)(C)C)/C1=C/C#N (configuration not stated)
GI50 [1]: 2.86 µM (inactive) | GI50 [2]: 0.838 µM (active) | GI50 [3]: 12.7 µM (inactive) | GI50 [4]: 1.76 µM (inactive) | GI50 [5]: 6.56 µM (inactive) | GI50 [6]: 10.9 µM (inactive) | GI50 [7]: 24.4 µM (inactive) | GI50 [8]: 0.67 µM (active) | GI50 [9]: 3.67 µM (inactive) | GI50 [10]: 5.93 µM (inactive) | GI50 [11]: 3.93 µM (inactive) | GI50 [12]: 3.71 µM (inactive) | GI50 [13]: 3.96 µM (inactive) | GI50 [14]: 5.48 µM (inactive) | GI50 [15]: 5.7 µM (inactive) | GI50 [16]: 40.8 µM (inactive) | GI50 [17]: 3.88 µM (inactive) | GI50 [18]: 1.79 µM (inactive) | GI50 [19]: 46.6 µM (inactive)

C=CCN1C(=O)N/C(=C\c2ccc(Cl)cc2)C1=O
GI50 [1]: > 100 µM (inactive) | GI50 [2]: > 100 µM (inactive) | GI50 [3]: > 100 µM (inactive) | GI50 [4]: > 100 µM (inactive) | GI50 [5]: > 100 µM (inactive) | GI50 [6]: > 100 µM (inactive) | GI50 [7]: 93.8 µM (inactive) | GI50 [8]: > 100 µM (inactive) | GI50 [9]: 87.7 µM (inactive) | GI50 [10]: > 100 µM (inactive) | GI50 [11]: > 100 µM (inactive) | GI50 [12]: > 100 µM (inactive) | GI50 [13]: > 100 µM (inactive) | GI50 [14]: > 100 µM (inactive) | GI50 [15]: > 100 µM (inactive) | GI50 [16]: > 100 µM (inactive) | GI50 [17]: > 100 µM (inactive) | GI50 [18]: > 100 µM (inactive) | GI50 [19]: > 100 µM (inactive)

CC(=O)OCC1=CC2OC(=O)C3=COC(OC4OC(CO)C(O)C(O)C4O)C1C32 (configuration not stated)
GI50 [1]: > 100 µM (inactive) | GI50 [2]: > 100 µM (inactive) | GI50 [3]: > 100 µM (inactive) | GI50 [5]: > 100 µM (inactive) | GI50 [6]: > 100 µM (inactive) | GI50 [7]: > 100 µM (inactive) | GI50 [8]: > 100 µM (inactive) | GI50 [9]: > 100 µM (inactive) | GI50 [10]: > 100 µM (inactive) | GI50 [11]: > 100 µM (inactive) | GI50 [12]: > 100 µM (inactive) | GI50 [13]: > 100 µM (inactive) | GI50 [14]: > 100 µM (inactive) | GI50 [15]: > 100 µM (inactive) | GI50 [16]: > 100 µM (inactive) | GI50 [17]: > 100 µM (inactive) | GI50 [18]: > 100 µM (inactive) | GI50 [19]: > 100 µM (inactive)

COC1CC2CCC(C)[C@](O)(O2)C(=O)C(=O)N2CCCCC2C(=O)OC(C(C)CC2CCC(O)C(OC)C2)CC(=O)C(C)C=C(C)C(OC(=O)CN(C)C)C(OC)C(=O)C(C)CC(C)/C=C/C=C/C=C\1C (some centres not stated)
GI50 [1]: 2 µM (inactive) | GI50 [3]: 11.6 µM (inactive) | GI50 [4]: < 0.01 µM (active) | GI50 [5]: 7.19 µM (inactive) | GI50 [6]: 7.43 µM (inactive) | GI50 [7]: < 0.01 µM (active) | GI50 [8]: < 0.01 µM (active) | GI50 [9]: 3.94 µM (inactive) | GI50 [10]: < 0.01 µM (active) | GI50 [11]: < 0.01 µM (active) | GI50 [12]: < 0.01 µM (active) | GI50 [13]: < 0.01 µM (active) | GI50 [14]: 7.38 µM (inactive) | GI50 [15]: 0.0101 µM (active) | GI50 [17]: 3.81 µM (inactive) | GI50 [18]: < 0.01 µM (active) | GI50 [19]: < 0.01 µM (active)

COc1ccc(C2SC(=N)Nc3c2c(C)nn3C(=O)c2ccncc2)cc1OC (configuration not stated)
GI50 [1]: > 10 µM (inactive) | GI50 [2]: > 10 µM (inactive) | GI50 [3]: > 10 µM (inactive) | GI50 [4]: > 10 µM (inactive) | GI50 [5]: > 10 µM (inactive) | GI50 [6]: > 10 µM (inactive) | GI50 [7]: > 10 µM (inactive) | GI50 [8]: > 10 µM (inactive) | GI50 [9]: > 10 µM (inactive) | GI50 [10]: > 10 µM (inactive) | GI50 [11]: > 10 µM (inactive) | GI50 [12]: > 10 µM (inactive) | GI50 [13]: > 10 µM (inactive) | GI50 [14]: > 10 µM (inactive) | GI50 [15]: > 10 µM (inactive) | GI50 [16]: > 10 µM (inactive) | GI50 [17]: > 10 µM (inactive) | GI50 [18]: > 10 µM (inactive) | GI50 [19]: > 10 µM (inactive)
